Measured values reported in patent publication US20230132823A1, “BI-FUNCTIONAL COMPOUNDS AND METHODS FOR TARGETED UBIQUITINATION OF ANDROGEN RECEPTOR” (MONTELINO THERAPEUTICS, INC., priority 2020, published 2023).
Read-outs that look alike come from different tables or passages of the source. Where a SMILES comes first, the peptide text is derived from it. [ ]: non-standard residue; d: D form. The star is where a group is joined. ξ: configuration not given here. X1 = O=C(COc1c(-c2csc(N3CCOCC3)n2)ccc(F)c1F)NCCCCCCN*; Dip = N[C@H](C(=O)O)C(c1ccccc1)c1ccccc1; Chg = N[C@H](C(=O)O)C1CCCCC1; NMeA = CN[C@@H](C)C(=O)O; ξP = O=C(O)C1CCCN1

Experiments:
AR-V7 = biological target: T1, AR-V7 (Homo sapiens, UniProt P10275); assay: Immunoblot analysis of AR-V7 protein in CaP cells (Experimental Example 3); type: cell-based; design: endogenous in cells; host or cells: 22Rv1 (also VCaP, LNCaP and SAT-resistant sublines)
T1 sequence (P10275 1-644 isoform P10275-3): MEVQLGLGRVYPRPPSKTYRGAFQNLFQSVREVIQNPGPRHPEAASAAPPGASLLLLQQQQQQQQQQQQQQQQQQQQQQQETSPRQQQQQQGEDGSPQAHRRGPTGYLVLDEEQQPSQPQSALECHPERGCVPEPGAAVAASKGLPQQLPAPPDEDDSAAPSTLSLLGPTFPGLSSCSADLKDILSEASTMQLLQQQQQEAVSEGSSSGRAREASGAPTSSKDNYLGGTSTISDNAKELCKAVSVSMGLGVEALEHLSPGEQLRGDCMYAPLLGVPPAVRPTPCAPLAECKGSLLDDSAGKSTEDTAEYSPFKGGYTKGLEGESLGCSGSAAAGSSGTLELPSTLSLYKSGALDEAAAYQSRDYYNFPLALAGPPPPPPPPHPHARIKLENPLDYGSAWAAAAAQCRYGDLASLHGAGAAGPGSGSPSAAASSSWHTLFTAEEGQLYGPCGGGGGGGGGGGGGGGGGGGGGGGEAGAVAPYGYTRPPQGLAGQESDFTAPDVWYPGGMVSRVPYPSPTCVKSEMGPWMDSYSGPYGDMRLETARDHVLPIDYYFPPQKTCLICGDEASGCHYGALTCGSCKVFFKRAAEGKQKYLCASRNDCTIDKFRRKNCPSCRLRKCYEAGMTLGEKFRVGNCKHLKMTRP
Protocol: Cell Culture. Human CaP cell lines, LNCaP, 22Rv1, VCaP, PC3, and DU145 are obtained from the American Type Culture Collection (ATCC) and maintained in the standard culture media: RPMI-1640 supplemented with 10% fetal bovine serum (FBS). LNCaP, 22Rv1, and VCaP are androgen-responsive cell lines, while PC3 and DU145 are not. To establish SAT resistant CaP cell lines, LNCaP, 22Rv1, and VCaP are treated continuously with 10-50 μM abiraterone, apalutamide, darolutamide, or enzalutamide. After 3-6 months, stable cell lines are established and designated as LNCaP-Abi^R, LNCaP-Apa^R, LNCaP-Daro^R, LNCaP-Enz^R, VCaP-Abi^R, VCaP-Apa^R, VCaP-Daro^R, VCaP-Enz^R, 22Rv1-Abi^R, 22Rv1-Apa^R, 22Rv1-Daro^R and 22Rv1-Enz^R. Unless otherwise specified, the standard culture media for these SAT-resistant cell lines included 10 μM of their respective SAT. For the proteasome inhibitor study, the inhibitors MG132 and Epoxomicin are used. The E3 ligase inhibitors Heclin, Nutlin 3a, Thalidomide, and VH298 are used. Cell lines obtained from ATCC are confirmed by checking their morphology using optical microscopy, establishing baselines for cell proliferation, verifying species of origin using isoenzymology, and characterizing the cell's DNA fingerprint using short tandem repeat (STR) profiling. Mycoplasma contamination is also assessed using a PCR based detection system.
Immunoblot Analysis. CaP cells are collected and lysed with the lysis buffer (20 mM Tris-HCl (pH 7.5), 150 mM NaCl, 1 mM Na2EDTA, 1 mM EGTA, 1% Triton, 2.5 mM sodium pyrophosphate, 1 mM beta-glycerophosphate, 1 mM Na3VO4, and 1 μg/ml leupeptin) containing 1 mM phenylmethylsulfonyl fluoride (PMSF). Cell lysates are then centrifuged and protein in the supernatant is quantified. After separating 25-50 μg of protein using SDS-PAGE, samples are incubated with AR-V7, GR, PR, ERα, AR-FL, ubiquitin, or β-actin antibodies. For AR-V7, AR-FL, PR, GR, and ERα immunoblots, primary antibody is diluted 1:1000 in 5% skim milk. For the β-actin immunoblot, 1:10000 diluted primary antibody is used. All membranes are incubated overnight at 4° C. Following the incubation with appropriate secondary antibody, immunoblots are analyzed using SuperSignal West Femto Maximum Sensitivity Substrate (ThermoFisher).

[1] = test system: 22Rv1-Enz^R tumor xenografts; assay: 22Rv1-Enz^R tumor xenograft in castrated nu/nu mice; type: in vivo; conditions: for tumor mass at 7 weeks: control approx. 1500 mm^3
Protocol: In Vivo Study. To explore the therapeutic potential of Test Compound, 22Rv1, 22Rv1-Enz^R, VCaP, and VCaP-Enz^R are injected into nu/nu immunodeficient mice. When the resulting tumors reached an average size of 3 mm in diameter, all animals are surgically castrated via bilateral orchiectomy and divided into four groups of five mice each. For anesthesia, 3% isoflurane gas inhalation is used. Tumor size was measured using calipers and tumor volume was calculated using the formula: tumor volume=length×width^2[…].
Mice are then treated daily with Test Compound with or without enzalutamide via the indicated route (intratumoral, intraperitoneal, or oral) for five to six weeks. At the end of the study, all animals are sacrificed and tumors are harvested and analyzed. Statistical significance is calculated using the Student's t-test for paired comparisons of experimental groups and, where appropriate, by Wilcoxon rank sum test, and by 2-way ANOVA. In vitro experiments are repeated a minimum of three times.
The in vivo effects of the Compound of Example 16 are assessed in mice using enzalutamide-resistant CaP xenografts. First, 22Rv1-Enz^R tumor xenografts are established in nu/nu mice. Upon CaP xenograft formation (average diameter of 3 mm), mice are randomized into controls or treatment. Control mice are treated with 100 μl vehicle containing 10 mg/ml enzalutamide (n=5). The treatment group is injected with 100 μl vehicle containing 2.5 mg/ml Compound of Example 16 and 10 mg/ml enzalutamide daily directly into tumors (n=5) and tumor volumes were followed. […] Tumors are harvested and analyzed at the end of the study period.

22Rv1 = 22Rv1 cell proliferation assay (Experimental Example 1, cell count); type: cell-based; conditions: Homo sapiens, 22Rv1, read-out: 22Rv1 cell count decrease at 10 μM for 48 hours; 10 μM (method: four days); read-out: 22Rv1 cell count decrease at 10 μM
Procedure, shortened: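 Human prostate cancer 22Rv1 cells, reported to express high levels of AR-V7, were grown in RPMI-1640 containing 10% fetal bovine serum. Test compounds were first dissolved in DMSO as 50 mM stock solutions and then diluted to the required concentrations. Proliferation was assessed as the percentage decrease in cell count.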

CN[C@@H](C)C(=O)N[C@H](C(=O)N1CCCC1C(=O)N[C@H](C(=O)NCCCCCCNC(=O)COc1c(-c2csc(N3CCOCC3)n2)ccc(F)c1F)C(c1ccccc1)c1ccccc1)C1CCCCC1 (stereo partly drawn) [Example 26, (S)-1-((S)-2-cyclohexyl-2-((S)-2-(methylamino)propanamido)acctyl)-N-((S)-1-((6-(2-(2,3-difluoro-6-(2-morpholinothiazol-4-yl)phenoxy)acetamido)hexyl)amino)-1-oxo-3,3-diphenylpropan-2-yl)pyrrolidine-2-carboxamide] (H-[NMeA][Chg][ξP][Dip]-X1)
DC50 (AR-V7; 24 hours, immunoblot, read-out: DC50, concentration at which 50% of AR-V7 is degraded in 24 hours): < 50 nM
tumor mass at 7 weeks ([1]; 0.83 mg/kg): < 600 mm^3
tumor mass at 7 weeks ([1]; 8.3 mg/kg): < 600 mm^3
inhibition at 10 µM (22Rv1): > 50%

Cc1ncsc1-c1ccc([C@H](C)NC(=O)[C@@H]2C[C@@H](O)CN2C(=O)[C@@H](NC(=O)CCCCNC(=O)COc2c(-c3csc(N4CCOCC4)n3)ccc(F)c2F)C(C)(C)C)cc1 [Example 16, (2S,4R)-1-((S)-2-(5-(2-(2,3-difluoro-6-(2-morpholinothiazol-4-yl)phenoxy)acetamido)pentanamido)-3,3-dimethylbutanoyl)-4-hydroxy-N-((S)-1-(4-(4-methylthiazol-5-yl)phenyl)ethyl)pyrrolidine-2-carboxamide]
AR-V7 degradation after pretreatment with proteasome inhibitors (AR-V7; 22Rv1, 2 hours MG-132 (5 μM) and epoxomicin (1 μM), then compound at 1 μM): completely blocked
DC50 (AR-V7; 22Rv1, 24 hours, immunoblot, read-out: DC50, concentration at which 50% of AR-V7 degraded in 24 hours): 370 nM
AR-V7 degradation after pretreatment with E3 ubiquitin ligase inhibitors (AR-V7; 22Rv1, two hours VH 298 20 μM, heclin 10 μM, nutlin 3a 0.1 μM or thalidomide 10 μM, then compound at 1 μM): only VH298 pretreatment inhibits AR-V7 degradation
concentration from which AR-V7 protein expression is decreased (immunoblot) (AR-V7; 22Rv1 cells, 24 hours, 0, 0.01, 0.1, 1 and 10 μM tested): 0.1 µM
AR-V7 protein expression level in parental and SAT-resistant 22Rv1, VCaP and LNCaP cells (AR-V7; immunoblot, effect on AR-V7 greater than on AR-FL): decreases the protein expression levels
tumor volume at the end of 5 weeks ([1]; intratumoral daily, 100 μl of 2.5 mg/ml compound plus 10 mg/ml enzalutamide, control 800 mm^3): approximately 500 mm^3
inhibition at 10 µM (22Rv1): < 50%
